From patent publication EP2871962B1, “WOOD PROTECTION AGAINST MICROORGANISMS BY LACCASE-CATALYSED IODINATION” (EMPA Eidgenössische Materialprüfungs- und Forschungsanstalt, priority 2012, dated 2013)
“And” between values parts separate entries of the source, which are not always exact repeats. Equal values may be shown once.

Key:
[1] = test system: A. pullulans, C. picea, C. herbarum and D. pinicola; test: Biotests 2: blue stain test of treated wood (EN 152-2, modified); assay type: cell-based; details: 6 weeks of incubation, mean of stain categories 0-5 ±SE, n = 6, Mediator = ACS (50 µM); for Blue stain discoloration, Leached: wood batch 2, leached (EN 84)
Description: (§1) Wood specimens (batch 1: 10 x 10 x 5 mm, length x width x height used in the biotests 1 and batch 2: 20 x 15 x 10 mm used in the biotests 2), free of defects, were extracted longitudinally from boards of Norway spruce trees grown in Switzerland, in order to minimize the influence of natural variability. All specimens were conditioned at 23C°(±1°C) and 50% (±5%) relative humidity (RH) until they reached an equilibrium moisture content of approximately 8-10%. Prior to the wood treatment the specimens were sterilized by autoclaving for 20min at 121°C(±1°C).
The enzymatic wood iodination and polymerisation were carried out by dipping three wood specimens of batch 1 in 30ml or 12 wood specimens of batch 2 in 200ml reaction solution (pH 4-6) containing one of the phenolic compounds (4mM), or potassium iodide (1 or 50mM) in the presence of laccase ([…]) for 18h at room temperature. Furthermore, to test the suitability of HBA (5mM) as mediator some additional experiments were performed. The chemical preservative VP 7/ 260a containing IPBC and propiconazole as active agents was used as a benchmark with a final concentration of 5% (v/v). The wood specimens were treated and used in the biological tests, with the following modifications: • Control = Wood treated with buffer • L = Wood treated with laccase alone • L-M = Wood treated with laccase and mediator • Iso = Wood treated with isoeugenol • Iso-L = Wood treated with isoeugenol and laccase • Iso-L-M = Wood treated with isoeugenol, laccase and mediator • Thy = Wood treated with thymol • Thy-L = Wood treated with thymol and laccase • Thy-L-M = Wood treated with thymol and laccase and mediator • Ix = Wood treated with 1 or 50mM iodide (x = concentration of iodide) • Ix-L = Wood treated with 1 or 50mM iodide and laccase • Ix-L-M = Wood treated with 1 or 50mM iodide, laccase and mediator • VP7 = Wood treated with VP 7/ 260a (IPBC and propiconazole)
After the reaction all wood specimens of batch 1 had undergone a leaching procedure comprising five cycles of incubation in ddH2O (liquid volume min. 10 times the specimen volume, 100rpm, room temperature, 24h) and water exchange. Half of the wood specimens of batch 2 were exposed to leaching for two weeks including nine steps of water changing according to EN 84 (29), the other half was used without leaching in biotests.
The resistance of the treated wood against blue stain and wood decay fungi was determined in biotests 2 according to the European standards EN 152-2 (30) and EN 113 (31) with slight modifications. The EN 152 is a classical test for blue staining, originally intended to determine the effectiveness of a preservative treatment against blue stain in service. The treated wood samples were dipped into a spore suspension of A. pullulans, C. picea, C. herbarum and D. pinicola (cfu: > 10^5) and placed horizontally in a Kolle flask containing vermiculite (18g) which was inoculated additionally with 40ml of the spore suspension. The incubated specimens were stored in an incubation room at 22°C and 70% RH (6 weeks). After incubation the surface was evaluated by classifying the percentage of blue-stain discolouration from 0 to 5 according to Thwaites et al. (32) (Table 1). Table 1: Determination of the blue stain discoloration

S. cerevisiae = test: Biotests 1: stamping test of treated, leached wood on agar; assay type: cell-based, Saccharomyces cerevisiae A.C. van Wijk (DSM 70449); details: wood batch 1 exposed to leaching; 18h contact; mean of grades 0-4 ±SE, n = 3; Mediator = ABTS (10 µM)
Description: as §1, with “121°C(±1°C). […]” for “121°C(±1°C).”
(§2) The evaluation of the antimicrobial activity against the bacteria E. coli and S. aureus and the yeast S. cerevisiae of the iodinated and polymerised wood was performed in biotests 1. […] Growth on agar plates was visually determined after incubation for 20-28h at the optimal temperature, giving the following growth values: 0 = no growth; 1 = weak growth; 2 = intermediate growth; 3 = strong growth and 4 = stamping area completely overgrown.

E. coli = test: as above; assay type: cell-based, Escherichia coli (ATCC 11229); details: wood batch 1 exposed to leaching; 18h contact; mean of grades 0-4 ±SE, n = 3; Mediator = ABTS (10 µM)
Description: as §1, with “121°C(±1°C). […]” for “121°C(±1°C).”
as §2

S. aureus = test: as above; assay type: cell-based, Staphylococcus aureus (ATCC 6583); details: wood batch 1 exposed to leaching; 18h contact; mean of grades 0-4 ±SE, n = 3; Mediator = ABTS (10 µM)
Description: as §1, with “121°C(±1°C). […]” for “121°C(±1°C).”
as §2

T. versicolor [2] = test: Growth inhibition on supplemented malt extract agar plates (Example 1); assay type: cell-based, Trametes versicolor; details: 2% MEA; phenolic derivatives 4mM, VP 7/ 260a 5% (v/v); without wood; ±SE, n = 3
Description: (§3) In addition to the mentioned biotests 2 the antimicrobial activity of the reaction derivatives without wood was evaluated on agar plates (5), excluding the laccase-catalysed iodine solution. It was assumed that the iodine molecules would react with starch from malt to form polyiodide chains, which would prevent the antimicrobial effect (33). The laccase catalysis of the phenols was performed under shaking for 18h at room temperature as described above and the phenolic derivatives were added to 2% MEA after autoclaving to a final concentration of 4mM. The fungicide VP 7/ 260a were added to a concentration of 5% (v/v). The supplemented Petri dishes were inoculated in the centre with a mycelium agar disc (5mm diameter) taken from the sub-margin of 14 day old cultures of the ascomycetes A. pullulans and D. pinicola and the basidiomycetes O. placenta and T. versicolor. The fungal growth was estimated by measuring the colony diameter and the growth inhibition was expressed as % of reference grown on non-supplemented malt agar.

A. alternata = test: as above; assay type: cell-based; details: 2% MEA; phenolic derivatives 4mM, VP 7/ 260a 5% (v/v); without wood; ±SE, n = 3
O. placenta [3] = test: Biotests 2: mini-wood block decay test (comparable with EN 113), mass loss; assay type: cell-based, Oligoporus placenta; details: wood batch 2, non-leached and leached, 12 weeks incubation; numbers only in Figure 2
Description: as §1
(§4) The enzymatic wood iodination and polymerisation were carried out by dipping three wood specimens of batch 1 in 30ml or 12 wood specimens of batch 2 in 200ml reaction solution (pH 4-6) containing one of the phenolic compounds (4mM), or potassium iodide (1 or 50mM) in the presence of laccase (10U ml^-1) and either 10µM ABTS for batch 1 or 100µM ACS for batch 2 under shaking (100rpm) for 18h at room temperature. […]
(§5) The treated wood was aseptically added to fully colonised Petri dishes (135mm diameter, 2% malt extract agar (MEA)) by O. placenta and T. versicolor respectively and incubated at 22C° and 70% RH. The ability of the wood-decay fungi to degrade the wood was determined gravimetrically after incubation periods of 6 and 12 weeks and expressed as mass loss (%) according to EN 113 (31): Mass loss(%) = (m0 −m1)/(m0)⋅100 [formula] […]

T. versicolor [4] = test: as above; assay type: cell-based, Trametes versicolor; details: wood batch 2, non-leached and leached, 12 weeks incubation; numbers only in Figure 2
Description: as §1, §4, §5

O. placenta [5] = test: Growth inhibition on supplemented malt extract agar plates (Example 1); assay type: cell-based, Oligoporus placenta; details: 2% MEA; phenolic derivatives 4mM, VP 7/ 260a 5% (v/v); without wood; ±SE, n = 3
Description: as §3

D. pinicola = test: as above; assay type: cell-based, Discula pinicola; details: 2% MEA; phenolic derivatives 4mM, VP 7/ 260a 5% (v/v); without wood; ±SE, n = 3
Description: as §3

SMILES | Blue stain discoloration, Leached [1] | Blue stain discoloration, Non-leached ([1]; wood batch 2, non-leached) | Growth values after stamping, S. cerevisiae (S. cerevisiae) | Growth values after stamping, E. coli (E. coli) | Growth values after stamping, S. aureus (S. aureus) | Growth inhibition [%] on agar plate compared to control, T. versicolor (T. versicolor [2]) | Growth inhibition [%] on agar plate compared to control, A. alternata (A. alternata) | mass loss of wood caused by O. placenta (result in words) (O. placenta [3]) | mass loss of wood caused by T. versicolor (result in words) (T. versicolor [4]) | Growth inhibition [%] on agar plate compared to control, O. placenta (O. placenta [5]) | Growth inhibition [%] on agar plate compared to control, D. pinicola (D. pinicola)
[I-].[K+] [I50, potassium iodide] | 3.3 ±0.3 | 0.8 ±0.4 | 2.7 ±0.3 | 4.0 ±0.0 | 3.0 ±0.6 | – | – | – | – | – | –
CC=Cc1ccc(O)c(OC)c1 [Iso, isoeugenol] | 3.4 and 3.4 ±0.5 | – | – | 4.0 and 4.0 ±0.0 | – | 100 ±0.0% | 100 ±0.0% | minor effect | minor effect | 100 ±0.0% | 100 ±0.0%
